According to patent US20070249590A1, “Substituted indolo[2,3-a]pyrrolo[3,4-c]carbazole compounds useful in treating kinase disorders” (priority 2005, published 2007):

Biological target: T1, JAK3 (JH1 and JH2 domain) (Homo sapiens, UniProt P52333)
T1 sequence (P52333 521-1111 limits assumed): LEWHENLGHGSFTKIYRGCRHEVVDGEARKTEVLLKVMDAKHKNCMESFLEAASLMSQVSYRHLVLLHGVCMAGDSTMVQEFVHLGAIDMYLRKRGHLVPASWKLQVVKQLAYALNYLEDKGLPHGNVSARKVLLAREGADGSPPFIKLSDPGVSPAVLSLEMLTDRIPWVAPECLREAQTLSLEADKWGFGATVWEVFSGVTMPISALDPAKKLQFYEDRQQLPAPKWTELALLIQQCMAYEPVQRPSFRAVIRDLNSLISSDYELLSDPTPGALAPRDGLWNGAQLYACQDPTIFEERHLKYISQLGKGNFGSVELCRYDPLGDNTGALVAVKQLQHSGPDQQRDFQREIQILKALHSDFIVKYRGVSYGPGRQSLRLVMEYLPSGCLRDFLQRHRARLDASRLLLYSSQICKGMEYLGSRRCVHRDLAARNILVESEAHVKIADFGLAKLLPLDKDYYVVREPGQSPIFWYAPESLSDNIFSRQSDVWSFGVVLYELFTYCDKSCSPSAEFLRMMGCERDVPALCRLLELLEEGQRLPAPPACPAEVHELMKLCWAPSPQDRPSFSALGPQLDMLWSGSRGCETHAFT
Test: JAK3 Kinase Assay (ELISA of peptide substrate phosphorylation)
Type: biochemical
Conditions: purified JAK3 enzyme, 10 μM ATP, biotinylated peptide substrate, 1 hour at room temperature
Method in brief: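 Sf21-baculovirus-expressed JAK3 (JH1+JH2), glutathione-bead purified, with biotinylated peptide substrate (in buffer containing 10 μM ATP) in HEPES pH 7.5/MgCl2/DTT, 1 h RT. Product was captured on Neutravidin, detected with HRP anti-phosphotyrosine (PY99)/TMB, OD 450/650 nm. Triplicate 16-point half-log series from 200 μM gave IC50; otherwise % inhibition at 1 μM.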

| IC50 | SMILES |
| --- | --- |
| 39 nM | COc1ccc(CCNC(=O)OC2CCn3c4ccccc4c4c5c(c6c7ccccc7n(c6c43)C2)C(=O)NC5=O)cc1OC (stereo not drawn) [Cpd 49, 12,13-(2-{[2-(3,4-dimethoxy-phenyl)ethyl]carbamoyloxy}-butan-1,4-yl)-12,13-dihydro-5,7-dioxo-6H-indolo[2,3-a]pyrrolo[3,4-c]carbazole] |
| 1050 nM | CC(C)OCc1ccc2c(c1)c1c3c(c4c5cc(COC(C)C)ccc5n5c4c1n2CC(CO)C5)C(=O)NC3 (stereo not drawn) [Cpd 210, 3,9-bis-(isopropoxymethyl)-12,13-(2-hydroxymethyl-propan-1,3-yl)-6,7,12,13-tetrahydro-5-oxo-5H-indolo[2,3-a]pyrrolo[3,4-c]carbazole] |
| 284 nM | CN1CCC(NCc2ccc3c(c2)c2c4c(c5c6ccccc6n6c5c2n3CC(O)C(O)C6)CNC4=O)CC1 (stereo not drawn) [Cpd 195, 3-[(1-methyl-piperidin-4-yl)aminomethyl]-12,13-(2,3-dihydroxy-butan-1,4-yl)-6,7,12,13-tetrahydro-5-oxo-5H-indolo[2,3-a]pyrrolo[3,4-c]carbazole] |
| 8 nM | O=C1NC(=O)c2c1c1c3cc(Br)ccc3n3c1c1c2c2ccccc2n1CC(O)CC3 (stereo not drawn) [Cpd 31, 3-bromo-12,13-(2-hydroxy-butan-1,4-yl)-12,13-dihydro-5,7-dioxo-6H-indolo[2,3-a]pyrrolo[3,4-c]carbazole] |
| 36 nM | O=C1NC(=O)c2c1c1c3ccccc3n3c1c1c2c2ccccc2n1CC(OC(=O)N1CCN(c2ccccc2)CC1)CC3 (stereo not drawn) [Cpd 64, 12,13-{2-[(4-phenyl-piperazin-1-yl)carbonyloxy]-butan-1,4-yl}-12,13-dihydro-5,7-dioxo-6H-indolo[2,3-a]pyrrolo[3,4-c]carbazole] |
| 547 nM | CC(=O)c1ccc(N2CCN(C(=O)OC3CCn4c5ccccc5c5c6c(c7c8ccccc8n(c7c54)C3)C(=O)NC6=O)CC2)cc1 (stereo not drawn) [Cpd 59, 12,13-(2-{[4-(4-methylcarbonyl-phenyl)piperazin-1-yl]carbonyloxy}-butan-1,4-yl)-12,13-dihydro-5,7-dioxo-6H-indolo[2,3-a]pyrrolo[3,4-c]carbazole] |
| 1060 nM | COCCNC(=O)OC1CCn2c3ccccc3c3c4c(c5c6ccccc6n(c5c32)CC1)C(=O)NC4 (stereo not drawn) [Cpd 179, 12,13-{3-[(2-methoxy-ethyl)carbamoyloxy]-pentan-1,5-yl}-6,7,12,13-tetrahydro-5-oxo-5H-indolo[2,3-a]pyrrolo[3,4-c]carbazole] |
| ~200 nM | O=C1NCc2c1c1c3ccccc3n3c1c1c2c2ccccc2n1CC(O)(COC(=O)N1CCC(CO)CC1)C3 (stereo not drawn) [Cpd 143, 12,13-{2-hydroxy-2-[(4-hydroxymethyl-piperidin-1-yl)carbonyloxymethyl]-propan-1,3-yl}-6,7,12,13-tetrahydro-5-oxo-5H-indolo[2,3-a]pyrrolo[3,4-c]carbazole] |
| 346 nM | O=C1NCc2c1c1c3ccccc3n3c1c1c2c2ccccc2n1CC(COC(=O)N1CC[C@@H](O)C1)C3 (stereo partly drawn) [Cpd 168, 12,13-(2-{[(3R)-3-hydroxy-pyrrolidin-1-yl]carbonyloxymethyl}-propan-1,3-yl)-6,7,12,13-tetrahydro-5-oxo-5H-indolo[2,3-a]pyrrolo[3,4-c]carbazole] |
| 618 nM | O=C1NCc2c1c1c3cc(OCCN4CCOCC4)ccc3n3c1c1c2c2ccccc2n1CC(O)C(O)C3 (stereo not drawn) [Cpd 203, 3-(2-morpholin-4-yl-ethoxy)-12,13-(2,3-dihydroxy-butan-1,4-yl)-6,7,12,13-tetrahydro-5-oxo-5H-indolo[2,3-a]pyrrolo[3,4-c]carbazole] |
| 48 nM | O=C1NC(=O)c2c1c1c3ccccc3n3c1c1c2c2ccccc2n1CC(O)(C(=O)NCCCN1CCCC1=O)C(O)C3 (stereo not drawn) [Cpd 127, 12,13-(2-{[3-(2-oxo-pyrrolidin-1-yl)prop-1-yl]carbamoyl}-2,3-dihydroxy-butan-1,4-yl)-12,13-dihydro-5,7-dioxo-6H-indolo[2,3-a]pyrrolo[3,4-c]carbazole] |
| 63 nM | O=C1NC(=O)c2c1c1c3ccccc3n3c1c1c2c2ccccc2n1CC(O)(C(=O)NC1CCOC1=O)C(O)C3 (stereo not drawn) [Cpd 122, 12,13-{2-[(2-oxo-tetrahydro-furan-3-yl)carbamoyl]-2,3-dihydroxy-butan-1,4-yl}-12,13-dihydro-5,7-dioxo-6H-indolo[2,3-a]pyrrolo[3,4-c]carbazole] |
| 49 nM | O=C1NCc2c1c1c3cc(NC4=NCCN4)ccc3n3c1c1c2c2ccccc2n1CC(O)C(O)C3 (stereo not drawn) [Cpd 206] |
| ~1000 nM | O=C(NC1CCN(Cc2ccccc2)CC1)OCC1Cn2c3ccccc3c3c4c(c5c6ccccc6n(c5c32)C1)C(=O)NC4 (stereo not drawn) [Cpd 163, 12,13-{2-[(1-benzyl-piperidin-4-yl)carbamoyloxymethyl]-propan-1,3-yl}-6,7,12,13-tetrahydro-5-oxo-5H-indolo[2,3-a]pyrrolo[3,4-c]carbazole] |
| 95 nM | CC1(C)OCC2(CO1)Cn1c3ccccc3c3c4c(c5c6ccccc6n(c5c31)C2)C(=O)NC4 [Cpd 26] |
| 123 nM | COCCNC(=O)OCC1(O)Cn2c3ccccc3c3c4c(c5c6ccccc6n(c5c32)C1)C(=O)NC4 (stereo not drawn) [Cpd 136, 12,13-{2-hydroxy-2-[(2-methoxy-ethyl)carbamoyloxymethyl]-propan-1,3-yl}-6,7,12,13-tetrahydro-5-oxo-5H-indolo[2,3-a]pyrrolo[3,4-c]carbazole] |
| 31 nM | CC(C)NC(=O)OC1CCn2c3ccccc3c3c4c(c5c6ccccc6n(c5c32)C1)C(=O)NC4=O (stereo not drawn) [Cpd 39, 12,13-[2-(prop-2-ylcarbamoyloxy)-butan-1,4-yl]-12,13-dihydro-5,7-dioxo-6H-indolo[2,3-a]pyrrolo[3,4-c]carbazole] |
| 71 nM | COc1ccccc1N1CCN(C(=O)OC2CCn3c4ccccc4c4c5c(c6c7ccccc7n(c6c43)C2)C(=O)NC5=O)CC1 (stereo not drawn) [Cpd 70, 12,13-(2-{[4-(2-methoxy-phenyl)piperazin-1-yl]carbonyloxy}-butan-1,4-yl)-12,13-dihydro-5,7-dioxo-6H-indolo[2,3-a]pyrrolo[3,4-c]carbazole] |
| 84 nM | O=C(NCCCn1ccnc1)OCC1(O)Cn2c3ccccc3c3c4c(c5c6ccccc6n(c5c32)C1)C(=O)NC4 (stereo not drawn) [Cpd 152, 12,13-{2-hydroxy-2-[(3-1H-imidazol-1-yl-prop-1-yl)carbamoyloxymethyl]-propan-1,3-yl}-6,7,12,13-tetrahydro-5-oxo-5H-indolo[2,3-a]pyrrolo[3,4-c]carbazole] |
| 178 nM | CN(C)CCCNC(=O)OC1CCn2c3ccccc3c3c4c(c5c6ccccc6n(c5c32)CC1)C(=O)NC4 (stereo not drawn) [Cpd 186, 12,13-{3-[(3-dimethylamino-prop-1-yl)carbamoyloxy]-pentan-1,5-yl}-6,7,12,13-tetrahydro-5-oxo-5H-indolo[2,3-a]pyrrolo[3,4-c]carbazole] |
| 31 nM | O=C1NCc2c1c1c3cc(/C=C/CNC4=NCCN4)ccc3n3c1c1c2c2ccccc2n1CC(CO)C3 (stereo not drawn) [Cpd 221, 3-{(1E)-3-[(4,5-dihydro-1H-imidazol-2-yl)amino]-prop-1-en-1-yl}-12,13-(2-hydroxymethyl-propan-1,3-yl)-6,7,12,13-tetrahydro-5-oxo-5H-indolo[2,3-a]pyrrolo[3,4-c]carbazole] |
| 14 nM | CC(C)NC(=O)OC1Cn2c3ccccc3c3c4c(c5c6ccccc6n(c5c32)CC1O)C(=O)NC4=O (stereo not drawn) [Cpd 85, 12,13-[2-(prop-2-yl-carbamoyloxy)-3-hydroxy-butan-1,4-yl]-12,13-dihydro-5,7-dioxo-6H-indolo[2,3-a]pyrrolo[3,4-c]carbazole] |
| 693 nM | CN1CCN(CCCNCc2ccc3c(c2)c2c4c(c5c6ccccc6n6c5c2n3CC(O)C(O)C6)CNC4=O)CC1 (stereo not drawn) [Cpd 197, 3-{[3-(4-methyl-piperazin-1-yl)prop-1-yl]aminomethyl}-12,13-(2,3-dihydroxy-butan-1,4-yl)-6,7,12,13-tetrahydro-5-oxo-5H-indolo[2,3-a]pyrrolo[3,4-c]carbazole] |
| > 200 nM | O=C(NCCCN1CCCC1=O)OCC1Cn2c3ccccc3c3c4c(c5c6ccccc6n(c5c32)C1)C(=O)NC4 (stereo not drawn) [Cpd 157, 12,13-(2-{[3-(2-oxo-pyrrolidin-1-yl)prop-1-yl]carbamoyloxymethyl}-propan-1,3-yl)-6,7,12,13-tetrahydro-5-oxo-5H-indolo[2,3-a]pyrrolo[3,4-c]carbazole] |
| 40 nM | O=C1NCc2c1c1c3ccccc3n3c1c1c2c2ccccc2n1C/C=C\C3 [Cpd 2, 12,13-(but-2-en-1,4-yl)-6,7,12,13-tetrahydro-5-oxo-5H-indolo[2,3-a]pyrrolo[3,4-c]carbazole] |
| 11 nM | Cc1ccc(CNC(=O)OC2CCn3c4ccccc4c4c5c(c6c7ccccc7n(c6c43)C2)C(=O)NC5=O)o1 (stereo not drawn) [Cpd 48, 12,13-(2-{[(5-methyl-furan-2-yl)methyl]carbamoyloxy}-butan-1,4-yl)-12,13-dihydro-5,7-dioxo-6H-indolo[2,3-a]pyrrolo[3,4-c]carbazole] |
| 15 nM | O=C1NC(=O)c2c1c1c3ccccc3n3c1c1c2c2ccccc2n1CC(O)(C(=O)NCc1ccncc1)C(O)C3 (stereo not drawn) [Cpd 117, 12,13-{2-[(pyridin-4-ylmethyl)carbamoyl]-2,3-dihydroxy-butan-1,4-yl}-12,13-dihydro-5,7-dioxo-6H-indolo[2,3-a]pyrrolo[3,4-c]carbazole] |
